Target: PCP recognition sites
Experiment: [3H]TCP Radioreceptor Assay (internal screen)
Assay type: binding, rat (male Sprague-Dawley
Settings: rat whole brain membranes, room temperature, 25 min; for Ki: ~1 nM [3H]TCP
Description: [^3 H]TCP Radioreceptor Assay (internal screen)
[^3 H]TCP binding to PCP recognition sites was performed as described by Vignon et al. Brain Research 1983, 280, 194°197. Male Sprague-Dawley rats were sacrificed by decapitation, and whole brains were homogenized in 10 volumes (wt/vol) of cold Tris-HCl buffer (50 mM, pH 7.7) using a Brinkmann Polytron (setting 6, 30 sec). The homogenate was centrifuged at 40,000×g for 10 min at 4° C. The supernatant was decanted, and the homogenization and centrifugation steps were repeated twice as described above. Following this, the pellet was resuspended in Tris-HCl (5 mM, pH 7.7) at a tissue concentration of 0.5°0.75 g/ml, and one ml aliquots were frozen at -70° C. until use. The binding characteristics for PCP recognition sites were not altered by the freezing of membrane suspensions.
On the day of the assay, membrane aliquots were thawed, resuspended in fresh 5 mM Tris-HCl buffer at a tissue concentration of 1 mg/ml, and stored on ice until use. Each assay tube contained 100 μl of [^3 H]TCP at a final concentration of approximately 1 nM, 100 μl of various concentrations of the compounds of interest, 500 μl of the tissue suspension and 300 of buffer to a final assay volume of 1 ml and a final protein concentration of 0.5 mg/tube. Non-specific binding was defined by addition of a final concentration of 100 μM PCP to blank tubes. All tubes were incubated at room temperature for 25 min before termination of the reaction by rapid filtration over Whatman GF/B glass fiber filters that had been presoaked in a solution of 0.5% polyethylenimine for at least 1 hr prior to use. Filters were washed with three 4 ml volumes of cold Tris buffer. Following addition of scintillation cocktail, the amount of bound radioactivity was determined by liquid scintillation spectrometry using a Beckman LS 5000TA liquid scintillation counter with an efficiency for tritium of approximately 55% . Inhibition constants (Ki values) were calculated using the EBDA/LIGAND program (McPherson, J. Pharmacol. Meth. 1985, 14, 213-228), purchased from Elsevier/Biosoft, Inc. Results are reported as Ki values or as a percent (%) inhibition of binding at 10

Row | Compound | Ki | other results
1 | 12,12-Diethylamino-13-phenyl-6,11-ethano-6,11-dihydrobenzo[b]quinolizinium perchlorate [63(j)] | 14400 nM | 
2 | CCOC1(OCC)C2c3ccccc3C([n+]3ccccc32)C1(C)C (single isomer, unassigned) [7(b), 12,12-diethoxy-13,13-dimethyl-6,11-ethano-6,11-dihydrobenzo[b]quinolizinium·-[(-)-DBT]] | 14.1 nM | 
3 | CCOC1(OCC)C2c3cc(OC)ccc3C([n+]3ccccc32)C1(C)C (single isomer, unassigned) [20(c), 9-methoxy-12,12-diethoxy-13,13-dimethyl-6,11-ethano-6,11-dihydrobenzo[b]quinolizinium chloride] | 7.05 nM | 
4 | C[C@@H]1C[C@@H](C)OC2(O1)C1c3ccccc3C([n+]3ccccc31)C2(C)C (single isomer, unassigned) [Example 10(b)] | 614 nM | 
5 | C[C@@H]1C[C@@H](C)OC2(O1)C1c3ccccc3C([n+]3ccccc31)C2(C)C (single isomer, unassigned) [Example 10(c)] | 365 nM | 
6 | CCOC1(OCC)C2c3ccccc3C(C1Cl)[n+]1ccccc12 (single isomer, unassigned) [Example 42, 6,11-ethano-12,12-diethoxy-13-chloroquinolizinium perchlorate] | 319 nM | 
7 | CCOC1C2c3ccccc3C([n+]3ccccc32)C1(C)C (single isomer, unassigned) [Example 49, 6,11-ethano-12-ethoxy-13,13-dimethyl-6,11-dihydrorbenzo[b]quinolizinium perchlorate] | 515 nM | 
8 | CCN(CC)C1C2c3ccccc3C(C1C)[n+]1ccccc12 (single isomer, unassigned) [Example 61, 6,11-ethano-12-(diethyl) amino-13-methyl-6,11-dihydrobenzo[b]quinolizinium diperchlorate] | 5420 nM | 
9 | CCOC1(OCC)C2c3c(OC(C)=O)cccc3C([n+]3ccccc32)C1(C)C.[O-][Cl+3]([O-])([O-])[O-] (stereo not drawn) [15(a), 10-acetoxy-12,12-diethoxy-13,13-dimethyl-6,11-ethano-6,11-dihydrobenzo[b]quinolizinium perchlorate] | 26.4 nM | 
10 | CCOC1(OCC)C2c3c(O)cccc3C([n+]3ccccc32)C1(C)C.[O-][Cl+3]([O-])([O-])[O-] (stereo not drawn) [15(b), 10-hydroxy-12,12-diethoxy-13,13-dimethyl-6,11-ethano-6,11-dihydrobenzo[b]quinolizinium perchlorate] | 7.87 nM | 
11 | CCOC1(OCC)C2c3c(O)cccc3C([n+]3ccccc32)C1(C)C (stereo not drawn) [15(c), 10-hydroxy-12,12-diethoxy-13,13-dimethyl-6,11-ethano-6,11-dihydrobenzo[b]quinolizinium chloride] | 6.9 nM | 
12 | CCOC1(OCC)C2c3ccccc3C([n+]3ccccc32)C1(CC)CC (stereo not drawn) [17(c), 12,12-diethoxy-13,13-diethyl-6,11-ethano-6,11-dihydrobenzo[b]quinoliziniumperchlorate] | 10.6 nM | 
13 | CCOC1(OCC)C2c3c(OC)cccc3C([n+]3ccccc32)C1(C)C (stereo not drawn) [19(b), 10-methoxy-12,12-diethoxy-13-13-dimethyl-6,11-ethano-6,11-dihydrobenzo[b]quinolizinium perchlorate] | 13.2 nM | 
14 | CC1(C)C2c3ccccc3C(c3cccc[n+]32)C12OCCCO2 (stereo not drawn) [22(b), 6,11-ethano-12,12-(1,3-propanediolketal)-13,13-dimethyl-6,11-dihydrobenzo[b]quinolizinium chloride] | 3300 nM | 
15 | CCOC1(OCC)C2c3cc(C(F)(F)F)ccc3C([n+]3ccccc32)C1(C)C (stereo not drawn) [23(b), 6,11-ethano-12,12-diethoxy-13,13-dimethyl-9-trifluoromethyl-6,11-dihydrobenzo[b]quinolizinium chloride] | 407 nM | 
16 | CCOC1(OCC)C2c3c(F)cc(F)cc3C([n+]3ccccc32)C1(C)C (stereo not drawn) [24(b), 6,11-ethano-12,12-diethoxy-13,13-dimethyl-8,10-difluoro-6,11-dihydrobenzo-[b]quinolizinium chloride] | 272 nM | 
17 | CCOC1(OCC)C2c3ccc(OC)cc3C([n+]3ccccc32)C1(C)C (stereo not drawn) [25(b), 6,11-ethano-12,12-diethoxy-13,13-dimethyl-8-methoxy-6,11-dihydrobenzo[b]quinolizinium chloride] | 147 nM | 

Row | Compound | Ki | other results
18 | CCOC1(OCC)C2c3ccccc3C([n+]3c(C)cccc32)C1(C)C (stereo not drawn) [27(b), 6,11-ethano-12,12-diethoxy-13,13-dimethyl-4-methyl-6,11-dihydrobenzo[b]quinolizinium chloride] | 314 nM | 
19 | CCOC1(OCC)C2c3c(OC(C)C)cccc3C([n+]3ccccc32)C1(C)C (stereo not drawn) [34(b), 6,11-ethano-12,12-diethoxy-13,13-dimethyl-10-isopropoxy-6,11-dihydrobenzo[b]quinolizinium chloride] | 47.5 nM | 
20 | CCOC1(OCC)CC2c3ccccc3C1c1cccc[n+]12 (stereo not drawn) [63(a), 12,12-Diethoxy-6,11-ethano-6,11-dihydrobenzo[b]quinolizinium bromide] | 3590 nM | 
21 | CCOC1(OCC)C2c3ccccc3C(C1C)[n+]1ccccc12.[O-][Cl+3]([O-])([O-])[O-] (stereo not drawn) [63(d), 12,12-Diethoxy-13-methyl-6,11-ethano-6,11-dihydrobenzo[b]quinolizinium perchlorate] | 49.3 nM | 
22 | CCOC1(OCC)C2c3cccc(C)c3C(C1C)[n+]1ccccc12.[O-][Cl+3]([O-])([O-])[O-] (stereo not drawn) [63(k), 7-Methyl-12,12-diethoxy-13-methyl-6,11-ethano-6,11-dihydrobenzo[b]quinolizinium perchlorate] | 2460 nM | 
23 | CCOC1(OCC)C(C)C2c3ccccc3C1(C)c1cccc[n+]12.[O-][Cl+3]([O-])([O-])[O-] (stereo not drawn) [63(l), 11-Methyl-12,12-diethoxy-13-methyl-6,11-ethano-6,11-dihydrobenzo[b]quinolizinium perchlorate] | 39.3 nM | 
24 | COC1(OC)C2c3ccccc3C([n+]3ccccc32)C1(C)C.[O-][Cl+3]([O-])([O-])[O-] (stereo not drawn) [63(m), 12,12-dimethoxy-13,13-dimethyl-6,11-ethano-6,11-dihydrobenzo[b]quinolizinium perchlorate] | 111 nM | 
25 | CCOC1(OCC)C2c3ccccc3C([n+]3ccccc32)C1(C)C (stereo not drawn) [Example 3, 12,12-diethoxy-13,13-dimethyl-6,11-ethano-6,11-dihydrobenzo[b]quinolizinium hexafluorophosphate] | 5.56 nM | 
26 | CCOC1(OCC)C2c3ccccc3C([n+]3ccccc32)C1(C)C (stereo not drawn) [Example 4, 12,12-diethoxy-13,13-dimethyl-6,11-ethano-6,11-dihydrobenzo[b]quinolizinium camphanate] | 5.66 nM | 
27 | CCOC1(OCC)C2c3ccccc3C([n+]3ccccc32)C1(C)C [Example 5, 12,12-diethoxy-13,13-dimethyl-6,11-ethano-6,11-dihydrobenzo[b]quinolizinium (S)-(+)-CH3 C(Ph)(OH)CO2^-] | 5.25 nM | 
28 | CCOC1(OCC)C2c3ccccc3C([n+]3ccccc32)C1(OCC)OCC (stereo not drawn) [Example 8, 12,12,13,13,-tetraethoxy-6,11-ethane-6,11-dihydrobenzo[b]quinolizinium perchlorate] | 5180 nM | 
29 | CC1(C)C2c3ccccc3C(c3cccc[n+]32)C12O[C@H](COCc1ccccc1)[C@@H](COCc1ccccc1)O2 (stereo partly drawn) [Example 9, 12,12-(1R,2R-dibenzyloxymethyl-ethanediolketal)-13,13-dimethyl-6,11-ethano-6,11-dihydrobenzo[b]quinolizinium perchlorate] |  | Percent inhibition, [3H]TCP (internal screen) (@ 10 μM): 11%
30 | C[C@@H]1C[C@@H](C)OC2(O1)C1c3ccccc3C([n+]3ccccc31)C2(C)C (stereo partly drawn) [Example 11, 12,12-(2R,4R-pentanediolketal)-13,13-dimethyl-6,11-ethano-6,11-dihydrobenzo[b]-quinolizinium chloride·1/2 hydrate] |  | Ki (hydrate): 497 nM
31 | CCOC1(OCC)C2c3cccc(OC)c3C([n+]3ccccc32)C1(C)C (stereo not drawn) [Example 16, 7-methoxy-12,12-diethoxy-13,13-dimethyl-6,11-ethano-6,11-dihydrobenzo[b]quinolizinium hexafluorophosphate] | 1870 nM | 
32 | CC1(C)C2c3ccccc3C(c3cccc[n+]32)C12OCCO2 (stereo not drawn) [Example 18, 12,..12-(1; 2-ethanediolketal)-13,13-dimethyl-6,11-ethano-6,11-dihydrobenzo[b]quinolizinium perchlorate] | 4000 nM | 
33 | CCOC1(OCC)C2c3cc(Cl)ccc3C([n+]3ccccc32)C1(C)C.[O-][Cl+3]([O-])([O-])[O-] (stereo not drawn) [Example 26, 6,11-ethano-12,12-diethoxy-13,13-dimethyl-9-chloro-6,11-dihydrobenzo[b]quinolizinium perchlorate] | 12.4 nM | 

— patent US5380729A, “12-hetero substituted 6,11-ethano-6,11-dihydrobenzo (b) quinolizinium salts and compositions and method of use thereof” (Sterling Winthrop Inc., priority 1993, dated 1995)
